PMC8123395, “Aggregation and Its Influence on the Bioactivities of a Novel Antimicrobial Peptide, Temporin-PF, and Its Analogues” (International Journal of Molecular Sciences, 2021)
In brackets after ≈: the same amount, converted by molar mass. Where two headings read alike, the source gives them in different places. Non-standard residues stand in square brackets, D forms with d. Residues, ends and D or L forms follow the SMILES beside them. No end group written: not given here.

How the values were obtained:
[1] = system: S. aureus biofilm; format: cell-based; settings: 24 h
Experimental: (§1) MBIC and MBEC assays were performed as previously described with minor modifications. For the MBIC assay, a suspension of broth diluted bacteria culture (5 × 10^5 CFU/mL) was incubated with the peptide solutions at 37 °C for 24 h. For MBEC assay, 100 μL inoculum culture was seeded to a 96-well-flat-bottom plate and incubated at 37 °C for 48 h to obtain the mature biofilm. Afterwards, the plate was washed by sterile phosphate-buffered saline (PBS; Sigma-Aldrich, Gillingham, UK) twice and treated with a series peptide solution at 37 °C for 24 h. Then, all the plates were washed with PBS and stained by 100 μL 0.1% crystal violet solution (Sigma-Aldrich, Gillingham, UK), and further dissolved by 30% acetic acid (Sigma-Aldrich, Gillingham, UK). The absorbance of each well was recorded by Synergy HT plate reader (Biotech, Minneapolis, MN, USA) at 595 nm.

[2] = system: S. aureus mature biofilm; format: cell-based
Experimental: as §1

[3] = system: MRSA mature biofilm; format: cell-based
Experimental: as §1

[4] = system: MRSA biofilm; format: cell-based; settings: 24 h
Experimental: as §1

[5] = system: Klebsiella pneumoniae (ATCC 43816); format: cell-based
Experimental: (§2) The minimum inhibitory concentration (MIC) and minimum bactericidal concentration (MBC) of peptides against the selected microorganisms were determined using the broth-dilution method, as described in the previous study. […] were used in the assay: Gram-positive bacteria Staphylococcus aureus (NCTC 10788), Enterococcus faecalis (NCTC 12697), and methicillin-resistant S. aureus (MRSA) (NCTC 12493); Gram-negative bacteria Escherichia coli (NCTC 10418), Pseudomonas aeruginosa (ATCC 27853), and Klebsiella pneumoniae (ATCC 43816). All the strains were cultured in Mueller Hinton Broth (MHB), pH 7.4 (Oxiod, Basingstoke, UK). Each peptide was tested at the final concentration from 128 to 1 µM in two-fold dilution. Norfloxacin was applied as the positive control.

[6] = system: Pseudomonas aeruginosa (ATCC 27853); format: cell-based
Experimental: as §2

[7] = system: Enterococcus faecalis (NCTC 12697); format: cell-based
Experimental: as §2

[8] = system: Escherichia coli (NCTC 10418); format: cell-based
Experimental: as §2

[9] = system: Staphylococcus aureus (NCTC 10788); format: cell-based
Experimental: as §2

[10] = system: methicillin-resistant S. aureus (MRSA) (NCTC 12493); format: cell-based
Experimental: as §2

[11] = Circular dichroism, helix content by BeStSel; format: physicochemical; settings: CD, room temperature, BeStSel analysis; for Helix Content % DPPC: 50 μM peptide in 3 mM DPPC SUVs (erythrocyte membrane mimic); for Helix Content % DPPG/DPPE: 50 μM peptide in 3 mM DPPG/DPPE (88:12) SUVs (bacterial membrane mimic); for Helix Content % 50% TFE: 50 μM peptide in 50% TFE/10 mM NH4AC, three scans averaged
Experimental: Figure 8 CD spectra of TPF and the analogs (50 μM) prepared in 10 mM NH4AC, 50% TFE/10 mM NH4AC, 3 mM DPPG/DPPE (88:12) SUVs, and 3 mM DPPC SUVs. The spectra were averaged over three consecutive scans, and the solvent CD signal was subtracted.
The determination of the secondary structure of peptides was conducted using a JASCO J-815 CD Spectropolarimeter (JASCO Inc., Tokyo, Japan) as described in the previous study. Then, 50 μM of each peptide sample was prepared in the aqueous 10 mM ammonium acetate (NH4Ac; Sigma-Aldrich, Gillingham, UK) buffer, 50% (v/v) 2,2,2-trifluoroethanol (TFE; Sigma-Aldrich, Gillingham, UK), and 3 mM DPPG:DPPE (88:12) and DPPC small unilamellar liposomes/vesicles (SUVs) that were used to mimic the bacterial and mammalian erythrocyte cell membranes, respectively. The liposome was hydrated in deionized water and then sonicated for 15 min with an interval 30 s in an ice bath for generating SUVs. Samples were loaded in a 1-mm thickness quartz cuvette and analyzed at room temperature with the following parameters: scan range of 190–250 nm, scanning speed of […], 1 nm bandwidth, and 0.5 nm data pitch. The spectra were obtained by averaging data from three scans. The CD spectra were analyzed by BeStSel (http://bestsel.elte.hu/index.php, accessed on 16 May 2020) for the determination of secondary structure content.

[12] = RP-HPLC retention order of mixed peptides (overall hydrophobicity); format: physicochemical; settings: peptides mixed in equal ratio and subjected to RP-HPLC; Supplementary Figure S4
Experimental: All peptides were chemically synthesized and purified by RP-HPLC. They were further mixed with an equal ratio and subjected to RP-HPLC. […] Subsequently, all peptides (1 mg/mL) were dissolved in a series of widely used culture media (Figure 2).
N-terminal Phe of temporin was believed to participate in the packaging of “head-tail” oligomerization. […] Furthermore, Trp/D-Trp substitution carried out on des-Phe1 TPF enhanced the peptide aggregation. […] It may be related to the decrease of the helical content; however, it could also be caused by the change of aggregation effects. Previous studies have shown that AMPs with strong antimicrobial activity are present as monomers in an aqueous solution and aggregate on the membrane to disrupt the bacterial cell membrane. […] It has been proposed that some aggregation effects of AMPs could limit the interaction of the peptide with its target, thereby reducing the antibacterial efficacy. In the previous study, the zipper-like motif is associated with the bioactivities as well as the assembly in the LPS micelles, which was considered to arise from hydrophobic interactions mainly. However, the overall hydrophobicity of Trp/D-Trp substituted analogs is less than that of des-Phe1 TPF, as estimated by RP-HPLC analysis. We hypothesize that the enhanced assembly seen for Trp/D-Trp substituted analogs might be related to the increased content of aromatic residues, because it could promote the strength of π stacking or cation-π type interaction. However, the true relation has not been fully clarified so far, and the capability of aromatic moieties to promote aggregation could also be affected by the hydrophobicity, position, and the neighboring side chains in their three-dimensional conformation.

[13] = Observation of aggregation: turbidity (absorbance at 600 nm) in media and salt solutions; format: physicochemical; settings: absorbance 600 nm, three replicates
Experimental: Figure 3 The absorbance of TPF and the analogs prepared in (a) a series of culture media, including PBS, RPMI1640, RPMI1640 with 10% FBS, TSB, and MHB; 0.25, 0.5, and 1 M of (b) Na2HPO4, (c) CaCl2, and (d) MgCl2 solutions. Peptide solutions were prepared from 1 mg/mL, and the wavelength was set as 600 nm. The error bar represents the standard deviation (SD) with three replicates.
The method was followed the previous study with modifications. The purified peptides were prepared at 10 mg/mL in water and subsequently diluted with different solutions, including PBS, RPMI1640, RPMI1640 with 10% FBS, TSB, MHB, Na2HPO4 (0.25, 0.5, and 1 M), CaCl2 (0.25, 0.5, and 1 M), and MgCl2 (0.25, 0.5, and 1 M), in a 96-well plate to achieve the final concentration of 1 mg/mL. The turbidity of each well was detected using the absorbance at 600 nm by a plate reader. The peptides dissolved in water were applied as negative control.

[14] = system: horse erythrocytes; experiment: Hemolysis test; format: cell-based; settings: 2% horse erythrocyte suspension; peptide 128 to 1 µM; comparison among the four peptides
Experimental: Figure 9 Hemolytic activity of TPF and the analog against horse red blood cell. The percentage of hemolysis was calculated with the absorbance at 570 nm, compared with PBS-treated red blood cells. The error bar represents SD of five replicates.
The hemolytic activity of each peptide was measured by incubating a range of final peptide concentrations from 128 to 1 µM in a two-fold dilution in a 2% suspension of the horse erythrocytes, as described in a previous study. The absorbance of hemoglobin released from red blood cells was detected at 570 nm. The percentage of hemolysis was calculated by the comparison to the 1% Triton X-100 treated red blood cells.

[15] = Preliminary observation of solubility / hydrogel formation in PBS; format: physicochemical; settings: peptide 10 mg/mL in PBS
Experimental: After the identification of TPF, the chemical synthesis of TPF was performed successfully. […] Therefore, we synthesized the des-Phe1 TPF to investigate the correlation between oligomerize effect and bioactivities. […] Therefore, we further substituted Phe with Trp and D-Trp to reveal the relationship between the oligomerization effect and the zipper motif and the influence on bioactivities (Table 1). The correct synthesis of peptides had been checked by MALDI-TOF mass spectrometry (Supplementary Figure S6) and synthetic yields were calculated (Supplementary Figure S7).

[16] = K. pneumoniae ATCC 43816, broth dilution in MHB pH 7.4, peptide 128 to 1 µM
[17] = P. aeruginosa ATCC 27853, broth dilution in MHB pH 7.4, peptide 128 to 1 µM
[18] = E. faecalis NCTC 12697, broth dilution in MHB pH 7.4, peptide 128 to 1 µM
[19] = E. coli NCTC 10418, broth dilution in MHB pH 7.4, peptide 128 to 1 µM
[20] = S. aureus NCTC 10788, broth dilution in MHB pH 7.4, peptide 128 to 1 µM two-fold dilution
[21] = MRSA NCTC 12493, broth dilution in MHB pH 7.4, peptide 128 to 1 µM

| Compound | MBIC ([1]; biofilm) | MBEC ([2]; mature biofilm, 48 h) | MBEC ([3]; mature biofilm, 48 h) | MBIC ([4]; biofilm) | MBC ([5]; ATCC 43816, pH 7.4) [µM] | MIC ([5]; ATCC 43816, pH 7.4) [µM] | MBC ([6]; ATCC 27853, pH 7.4) [µM] | MIC ([6]; ATCC 27853, pH 7.4) [µM] | MBC ([7]; NCTC 12697, pH 7.4) [µM] | MIC ([7]; NCTC 12697, pH 7.4) [µM] | MBC ([8]; NCTC 10418, pH 7.4) [µM] | MIC ([8]; NCTC 10418, pH 7.4) [µM] | MBC ([9]; NCTC 10788, pH 7.4) [µM] | MIC ([9]; NCTC 10788, pH 7.4) [µM] | MBC ([10]; NCTC 12493, pH 7.4) [µM] | MIC ([10]; NCTC 12493, pH 7.4) [µM] | Helix Content % DPPC [11] [%] | Helix Content % DPPG/DPPE [11] [%] | Helix Content % 50% TFE [11] [%] | order of retention time (RP-HPLC, used as estimate of overall hydrophobicity) [12] | other results |
| --- | --- | --- | --- | --- | --- | --- | --- | --- | --- | --- | --- | --- | --- | --- | --- | --- | --- | --- | --- | --- | --- |
| LPLIAGLWGKIW-NH2 [W-des-Phe1 TPF] | 64 µM | > 128 µM | 128/>128 µM | 128/>128 µM | 128 | 128 | > 128 | > 128 | 128 | 128 | 128 | 128 | 32 | 32 | 128 | 128 | 10.1 | 26.9 | 27.7 | TPF> des-Phe1 TPF> W-des-Phe1 TPF> dW-des-Phe1 TPF | turbidity in culture media ([13]; peptide 1 mg/mL diluted from 10 mg/mL in water, PBS, RPMI1640, RPMI1640 with 10% FBS, TSB, MHB): increased outstandingly; salting-out effect in Na2HPO4 solutions ([13]; peptide 1 mg/mL, 0.25, 0.5 and 1 M Na2HPO4): strongest salting-out effect |
| CC[C@H](C)[C@H](NC(=O)[C@H](CC(C)C)NC(=O)[C@@H]1CCCN1C(=O)[C@@H](N)CC(C)C)C(=O)N[C@@H](C)C(=O)NCC(=O)N[C@@H](CC(C)C)C(=O)N[C@H](Cc1c[nH]c2ccccc12)C(=O)NCC(=O)N[C@@H](CCCCN)C(=O)N[C@H](C(=O)N[C@H](Cc1c[nH]c2ccccc12)C(N)=O)[C@@H](C)CC [dW-des-Phe1 TPF] (H-LPLIAGL[dW]GKI[dW]-NH2; N-terminus assumed) | >128/>128 µM | >128/>128 µM | >128/>128 µM | >128/>128 µM | > 128 | > 128 | > 128 | > 128 | > 128 | > 128 | > 128 | > 128 | 64 (≈ 87.4 µg/mL) | 64 (≈ 87.4 µg/mL) | > 128 | > 128 | 8.3 | 0.5 | 3.0 | TPF> des-Phe1 TPF> W-des-Phe1 TPF> dW-des-Phe1 TPF |  |
| FLPLIAGLFGKIF-NH2 [TPF] |  |  |  |  |  |  |  |  |  |  |  |  |  |  |  |  |  |  |  |  | MBIC ([1]; S. aureus, 5 × 10^5 CFU/mL with peptide, 37 °C, crystal violet, absorbance 595 nm): 4 µM; MBEC ([2]; S. aureus, 48 h mature biofilm treated with peptide 37 °C, 24 h, crystal violet, absorbance 595 nm): 32 µM; MBEC ([3]; MRSA, 48 h mature biofilm treated with peptide 37 °C, 24 h, crystal violet, absorbance 595 nm): 16 µM; MBIC ([4]; MRSA, 5 × 10^5 CFU/mL with peptide, 37 °C, crystal violet, absorbance 595 nm): 4 µM; hemolytic activity (in words) [14]: strongest hemhemolytic activity; MBC [5, 16]: > 128 µM; MIC [5, 16]: > 128 µM; MBC [6, 17]: > 128 µM; MIC [6, 17]: > 128 µM; MBC [7, 18]: 16 µM; MIC [7, 18]: 16 µM; MBC [8, 19]: > 128 µM; MIC [8, 19]: > 128 µM; MBC [9, 20]: 32 µM; MIC [9, 20]: 4 µM; MBC [10, 21]: 4 µM; MIC [10, 21]: 4 µM; solubility in PBS [15]: significantly decreased |
